Test results taken from US8945518B2, “Formulation of dual eicosanoid system and cytokine system inhibitors for use in the prevention and treatment of oral diseases and conditions” (Unigen, Inc., priority 2002, dated 2015).
One block for each compound: values may come before it.

Columns and labels:
[1] = biological target: T1, recombinant ovine COX-2 (Ovis aries, UniProt P79208); assay: COX-2 peroxidase activity inhibition (TMPD, 96-well); assay type: biochemical; details: IC50 normalized to enzyme units
T1 sequence (P79208 17-603): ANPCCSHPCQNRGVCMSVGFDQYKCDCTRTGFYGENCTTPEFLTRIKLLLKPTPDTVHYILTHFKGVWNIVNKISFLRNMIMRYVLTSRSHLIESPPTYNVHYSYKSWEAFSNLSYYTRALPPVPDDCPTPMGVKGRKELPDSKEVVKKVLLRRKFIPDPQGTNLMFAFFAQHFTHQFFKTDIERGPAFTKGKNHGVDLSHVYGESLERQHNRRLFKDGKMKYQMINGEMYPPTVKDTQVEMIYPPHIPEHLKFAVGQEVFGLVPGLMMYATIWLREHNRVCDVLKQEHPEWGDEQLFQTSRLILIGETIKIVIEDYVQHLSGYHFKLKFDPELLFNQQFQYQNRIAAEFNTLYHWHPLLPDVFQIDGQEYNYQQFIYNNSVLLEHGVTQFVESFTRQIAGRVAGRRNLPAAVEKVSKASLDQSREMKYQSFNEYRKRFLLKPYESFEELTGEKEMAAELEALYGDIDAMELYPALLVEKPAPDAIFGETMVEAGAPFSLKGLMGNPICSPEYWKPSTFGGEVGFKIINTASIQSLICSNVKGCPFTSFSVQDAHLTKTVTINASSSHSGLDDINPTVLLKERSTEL
Excerpt: (§1) In order to screen for compounds that inhibited the COX-1 and COX-2 activities, a high throughput, in vitro assay was developed that utilized the inhibition of the peroxidase activity of both enzymes. […] Briefly, the composition or compound being examined was titrated against a fixed amount of COX-1 and COX-2 enzymes. A cleavable, peroxide chromophore was included in the assay to visualize the peroxidase activity of each enzyme in presence of arachidonic acid as a cofactor. Typically, assays were performed in a 96-well format. Each inhibitor, taken from a 10 mg/mL stock solution in 100% DMSO, was tested in triplicate at room temperature using the following range of concentrations: 0, 0.1, 1, 5, 10, 20, 50, 100, and 500 μg/mL. […] The components were mixed for 10 seconds on a rotating platform, followed by the addition of 20 μL of 2 mM N,N,N′N′-tetramethyl-p-phenylenediamine dihydrochloride (TMPD) and 20 μL of 1.1 mM arachidonic acid to initiate the reaction. The plate was shaken for 10 seconds and then incubated 5 minutes before reading the absorbance at 570 nm. The inhibitor concentration vs. % inhibition was plotted and the IC50 determined by taking the half-maximal point along the isotherm and intersecting the concentration on the X-axis. The IC50 was then normalized to the number of enzyme units in the assay.

[2] = biological target: T2, recombinant ovine COX-1 (Ovis aries, UniProt P05979); assay: COX-1 peroxidase activity inhibition (TMPD, 96-well); assay type: biochemical
T2 sequence (P05979 25-600): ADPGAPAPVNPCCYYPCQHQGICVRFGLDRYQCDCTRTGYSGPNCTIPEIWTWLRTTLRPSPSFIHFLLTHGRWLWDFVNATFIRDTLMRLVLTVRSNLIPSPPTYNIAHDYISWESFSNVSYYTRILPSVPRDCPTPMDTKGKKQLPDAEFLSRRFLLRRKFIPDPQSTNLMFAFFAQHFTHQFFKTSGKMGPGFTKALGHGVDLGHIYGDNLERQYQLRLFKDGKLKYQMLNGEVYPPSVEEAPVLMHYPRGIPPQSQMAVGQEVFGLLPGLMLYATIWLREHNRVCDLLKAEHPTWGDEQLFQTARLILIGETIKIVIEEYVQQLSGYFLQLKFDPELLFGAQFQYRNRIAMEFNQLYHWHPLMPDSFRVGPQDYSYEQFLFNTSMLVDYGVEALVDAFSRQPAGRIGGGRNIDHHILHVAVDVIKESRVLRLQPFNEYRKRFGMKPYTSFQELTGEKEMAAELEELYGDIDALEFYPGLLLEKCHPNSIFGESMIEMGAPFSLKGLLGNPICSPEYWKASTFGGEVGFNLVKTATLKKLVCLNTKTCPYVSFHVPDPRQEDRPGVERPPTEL
Excerpt: as §1

[3] = system: prostaglandin endoperoxide synthase; details: Kalkbrenner et al. (1992); cited from earlier work
[4] = system: cox-2 gene transcription in human colon cancer DLD-1 cells; details: Mutoh et al. (2000), read-out: IC50, suppression of cox-2 gene transcription; cited from earlier work
[5] = Stability of catechin in solution; assay type: physicochemical
Procedure: A total of 6 different conditions (not including control solution) were chosen for this stability investigation at 45° C. Aqueous K2HPO4 (0.5 M) or KH2PO4 (0.5 M) was utilized to make buffered solutions at pH 5 or 8, respectively. […] All seven solutions were stored in sealed bottles at 45° C.
All eight solutions were stored in sealed bottles at 45° C.

[6] = Oxygen Radical Absorption Capacity (ORAC)
[7] = literature studies of bioavailability; cited from earlier work
[8] = system: newly synthesized LTB4 (5-LOX pathway) in HT-29 cells; assay: LTB4 competitive ELISA in HT-29 cells; assay type: cell-based; details: Homo sapiens, 3 μg/mL, 48 hrs
Procedure: A competitive ELISA for Leukotriene B4 (LTB4; Neogen, Inc., Cat#406110) was used to assess the effect of this UP676 formulation on newly synthesized levels of LTB4 present in each cell line as a measure UP676's inhibitory effect on the 5-LOX pathway. The assay was performed in duplicate by adding 160,000 to 180,000 cells per well in 6-well plates. […] Each treated cell line was then harvested by centrifugation and disrupted by gentle dounce homogenization lysis in physiological buffers.

[9] = system: COX-1 and COX-2 enzymes; details: cited from earlier work

IC50 for COX-2 [1]: 0.28 μg/mL/unit | IC50 for COX-1 ([2]; peroxidase activity, IC50 normalized to enzyme units): 0.44 μg/mL/unit of enzyme
Structure (SMILES): O=C(O)[C@H]1O[C@@H](Oc2cc3oc(-c4ccccc4)cc(=O)c3c(O)c2O)[C@H](O)[C@@H](O)[C@@H]1O [Baicalin]

Structure (SMILES): Oc1cc(O)c2c(c1)OC(c1ccc(O)c(O)c1)C(O)C2 (stereo not drawn) [Catechin]
IC50 [3]: 40 µM | IC50 [4]: 415 µM | stability of catechin in solution, basic conditions or metal ions ([5]; basic conditions or metal ions such as Fe3+): not under basic conditions or when exposed to metal ions | stability of catechin in solution, neutral conditions ([5]; neutral conditions, 4° C. and 40° C.): stable | stability of catechin in solution, weakly basic ([5]; pH=7.5): decomposes | selectivity against the COX-1 enzyme ([2]; catechin in the UP676 formulation, COX-1 over COX-2): 2.3 fold | Oxygen Radical Absorption Capacity (ORAC) [6]: 20,000 | half life [7]: 2 h

Structure (SMILES): CC(C)Cc1ccc(C(C)C(=O)O)cc1 (stereo not drawn) [Ibuprofen, ibuprofen]
inhibition at 3 µg/mL [8]: 20%

Structure (SMILES): CC(=O)Oc1ccccc1C(=O)O [aspirin]
times more potent against COX-1 than COX-2 [9]: more than 150 times
